According to PubChem BioAssay (NCI):
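Interpolation was linear, between the two tested concentrations surrounding the appropriate level; five concentrations were tested over 48 hours in 96-well plates. TGI marks complete inhibition of growth.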

Experiments:
Test in all cases: growth of human tumour cells (NCI), 48 h
RXF-631 renal = tested on: RXF-631 renal
DMS 273 small cell lung = tested on: DMS 273 small cell lung
DMS 114 small cell lung = tested on: DMS 114 small cell lung
DLD-1 colon = tested on: DLD-1 colon
XF 498 CNS = tested on: XF 498 CNS
HOP-18 NSCLC = tested on: HOP-18 NSCLC
LXFL 529 NSCLC = tested on: LXFL 529 NSCLC

## Cc1cnoc1/N=C1\C=C(Nc2oncc2C)C(=O)c2ccccc21
RXF-631 renal
  TGI: > 100 µM
DMS 273 small cell lung
  TGI: > 100 µM
DMS 114 small cell lung
  TGI: > 100 µM
DLD-1 colon
  TGI: > 100 µM
XF 498 CNS
  TGI: > 100 µM
HOP-18 NSCLC
  TGI: > 100 µM
LXFL 529 NSCLC
  TGI: > 100 µM

## CC(C)NC1CCCCC2c3ccccc3C12O (stereo not given)
DMS 273 small cell lung
  TGI: > 100 µM
DMS 114 small cell lung
  TGI: > 100 µM
XF 498 CNS
  TGI: > 100 µM
HOP-18 NSCLC
  TGI: > 100 µM
LXFL 529 NSCLC
  TGI: > 100 µM

## COc1ccc(/C=C2\C(=O)N(C(=O)c3ccc(NC(C)=O)cc3)N=C2C)cc1OC
DMS 273 small cell lung
  TGI: > 100 µM
DMS 114 small cell lung
  TGI: > 100 µM
DLD-1 colon
  TGI: > 100 µM
XF 498 CNS
  TGI: > 100 µM
HOP-18 NSCLC
  TGI: > 100 µM

## CCOC(=O)c1ccc(N2C(=O)/C(=C/c3ccc(N(CCC#N)CCC#N)cc3)N=C2c2cc([N+](=O)[O-])ccc2Cl)cc1
RXF-631 renal
  TGI: > 100 µM
DMS 273 small cell lung
  TGI: > 100 µM
DMS 114 small cell lung
  TGI: > 100 µM
DLD-1 colon
  TGI: > 100 µM
HOP-18 NSCLC
  TGI: > 100 µM
LXFL 529 NSCLC
  TGI: > 100 µM

## CC(C)C(Sc1nc(-c2ccccc2)c(-c2ccccc2)[nH]1)C(=O)N/N=C/c1ccc(Cl)cc1 (stereo not given)
DMS 273 small cell lung
  TGI: 39.6 µM
DMS 114 small cell lung
  TGI: 71.5 µM
DLD-1 colon
  TGI: > 100 µM
LXFL 529 NSCLC
  TGI: 82.8 µM

## COC1CCC(O)C(CO)O1 (stereo not given)
DLD-1 colon
  TGI: > 100 µM
XF 498 CNS
  TGI: > 100 µM
LXFL 529 NSCLC
  TGI: > 100 µM

## CCOc1cc2c(cc1OC)c[n+](C)c1c3cc(OC)c(OC)cc3ccc21
RXF-631 renal
  TGI: 44.9 µM
DMS 273 small cell lung
  TGI: > 100 µM
DMS 114 small cell lung
  TGI: 51.3 µM
DLD-1 colon
  TGI: > 100 µM
HOP-18 NSCLC
  TGI: > 80.1 µM
LXFL 529 NSCLC
  TGI: > 100 µM

## COC(=O)C1=C(C(=O)OC)C23CC4CCC2(C(=O)C1O3)C4(C)C (stereo not given)
DLD-1 colon
  TGI: > 100 µM
XF 498 CNS
  TGI: > 100 µM
HOP-18 NSCLC
  TGI: > 100 µM
LXFL 529 NSCLC
  TGI: > 100 µM
